Assay results from patent US20140243332A1, “METHODS OF TREATING CANCERS CHARACTERIZED BY ABERRENT ROS1 ACTIVITY” (Oregon Health & Science University, priority 2013, published 2014).
Values joined by “and” are separate entries in the source; they are usually repeats but may differ in a detail not shown here. Equal entries are not always repeated. Where two headings read alike, the source gives them in different places. Blank lines part the entries; values can stand above or below the molecule they belong to.

How the values were obtained:
HCC78 cells = assay: Cell viability (MTS) assay, HCC78; assay type: cell-based, human
Procedure: (§1) The parental Ba/F3 cell line was cultured in RPMI 1640 medium with 10% FBS, L-glutamine, penicillin/streptomycin and 15% WEHI-conditioned media. Ba/F3 cell lines were maintained at densities of 0.5×10^6 to 1.5×10^6 per ml of media. FIG-ROS and SLC-ROS Ba/F3 lines were created by infecting the parental Ba/F3 with retrovirus expressing either human FIG-ROS-S (indicated FIG-ROS herein) or SLC-ROS-S (indicated SLC-ROS herein). Stable transfectant lines were sorted for GFP expression on a FACS Aria® flow cytometer. Cells were counted daily using Guava ViaCount® reagent and Guava Personal Cell Analysis® flow cytometer. […] Early passage NIH3T3 cells were infected with retrovirus expressing either FIG-ROS or SLC-ROS and sorted for GFP expression as described above for Ba/F3 cells. HCC78 cells were cultured in RPMI 1640 medium with 10% FBS, L-glutamine, and penicillin/streptomycin. This media is referred to as RPMI-10% FBS herein.

FIG-ROS tumors = assay: In vivo treatment of mice bearing subcutaneous FIG-ROS cholangiocarcinoma tumors; conditions: 25 mg/kg oral gavage once daily, 9 days, immunodeficient mice; foretinib p<0.0001 for Lines 4 and 6
PC9 cells = assay: Cell viability assay, PC9; assay type: cell-based, human; conditions: PC9 cells (activated EGFR), FIG. 6B
Procedure: (§2) IC50 was determined from non-linear regression curve fit analysis of the dose response curves.

SLC-ROS = SLC-ROS (Homo sapiens, UniProt P08922); assay: Immunoblot of Ba/F3 SLC-ROS lysates; assay type: cell-based; design: SLC34A2 N-terminal portion, fusion partner; expressed in transfected cells; host or cells: Ba/F3 (A15), retroviral pMIG; the other entry of the earlier key: SLC34A2 (O95436, Sodium-dependent phosphate transport protein 2B); conditions: Ba/F3 SLC-ROS cells, increasing amounts, immunoblot FIG. 1C
Procedure: (§3) FIG. 1C is an image of an immunoblot of lysates of Ba/F3 FIG-ROS and Ba/F3 SLC-ROS and the indicated downstream effectors after treatment with the indicated compounds. Images shown are representative of three independent experiments.
(§4) Ba/F3 FIG-ROS, Ba/F3 SLC-ROS, HCC78 and mCC cell lines were treated with the indicated concentration of inhibitors for 1-2 hours. […] The protein content of the cell lysates was determined and lysates were either used for immunoprecipitation where indicated or extracted with SDS Sample buffer for 15 minutes at 80° C. Proteins were transferred to Immobilon-FL membranes and immunoblotted with antibodies specific for phospho-ROS1 (Cell Signaling Technology (CST) #3078), total ROS1 (CST #3266), phopsho-Shp2 (CST #3751), total Shpt (CST #3752), phospho-Stat3 (CST #9145), total Stat3 (CST #4904), phospho-Erk1/2 (CST #9101), total Erk2 (Santa Cruz #SC-1647), phospho-S6 (CST #4858), total S6 (CST #2216), phospho-Src (CST #2105), total Src (CST #2110), α-tubulin (Sigma T6199), or β-actin (Sigma A1978) as indicated. Images of the blots were generated by the LI-COR Odyssey® imaging system, following the manufacturer's protocol for immunoblot detection with use of IR-dye conjugated secondary antibodies.

HCC4011 cells = assay: Cell viability assay, HCC4011; assay type: cell-based, human; conditions: HCC4011 cells (activated EGFR), FIG. 6B
Procedure: as §2

Ba/F3 parental cells = assay: Cell viability (MTS) assay, Ba/F3 parental; assay type: cell-based
Procedure: as §1
(§5) […]. The Ba/F3 parental line was also tested. (O'Dwyer M E and Druker B J, Lancet Oncology 1, 207-211 (2000); Walters D K et al, Cancer Cell 10, 65-75 (2006); and Heukamp L C et al, Science Translational Medicine 4, 141ra191 (2012); […].

FIG-ROS [1] = target: T1, FIG-ROS (Homo sapiens, UniProt P08922); assay: Immunoblot of FIG-ROS murine cholangiocarcinoma cell lysates; assay type: cell-based; design: expressed in transfected cells; host or cells: murine cholangiocarcinoma tumour cell lines (lines 3 and 4) derived from transduced mouse hepatoblasts; the other entry of the earlier key: GOPC (Q9HD26, Golgi-associated PDZ and coiled-coil motif-containing protein); conditions: 100 nM, FIG-ROS murine cholangiocarcinoma cells
Procedure: […]. Images shown are representative of three independent experiments.
as §4
(§6) . The inhibition was dose dependent (FIG. 2B). […].

[2] = system: FIG-ROS murine cholangiocarcinoma tumor cells; assay: cells; conditions: Mus musculus, read-out: IC50 cell growth
Procedure: (§7) Hepatoblasts of the genotype AlbCre^+/−; Isl Kras^G12D+/−; p53^R172H/loxp were isolated from ED14.5 mouse embryos and retrovirally transduced with either the FIG-ROS fusion, turbo RFP or a short hairpin RNA against Pten (shPten.1522). At 48 hours following transduction, 1×10^6 cells were resuspended in 25 μl Matrigel and injected sub-capsular into the livers of immune-deficient mice. Upon tumor formation, tumors were explanted and subjected to collagenase digestion. Digests were plated onto gelatin-coated plates. Tumor cells were enriched by either differential trypsinization or cell sorting. […] These four cell lines were further cultured and maintained in DMEM-High glucose medium supplemented with 10% FCS, L-glutamine and penicillin/streptomycin.
(§8) Cell lines were distributed in 96-well plates and incubated with the indicated concentrations of inhibitor for 72 hours. […] Ba/F3 cell lines were plated at 4×10^3 cells/well. HCC78 and mCC cell lines were plated at 1.5×10^3 cells/well. All cell types were seeded in a final volume of 80 microliters. A 20 microliter volume of five-fold concentrated inhibitor media was added. Cell proliferation was measured using a […] viability assay (CellTiter96 Aqueous One® Solution; Promega). A BioTek Synergy 2® plate reader was used to read the absorbance at 490 nm at 30 minutes and 1 hour after addition of MTS. To facilitate comparison between experiments, the raw MTS absorbance of vehicle (0.1% DMSO) treated cells was set to 1 and absorbance from inhibitor treated wells was normalized to the vehicle treated value. […] Data were normalized using Microsoft Excel® and further non-linear regression curve fit analysis of the normalized data for determination of IC50 was performed using Graphpad Prism® software.
(§9) To directly assess inhibition of FIG-ROS phosphorylation, immunoblot analyses of lysates from vehicle or inhibitor-treated cells were performed.

[3] = system: shPten murine cholangiocarcinoma tumor cells; assay: cells; conditions: Mus musculus, read-out: IC50 cell growth
Procedure: as §7, §8, §9

[4] = system: ENU-treated Ba/F3 FIG-ROS cells; assay: Accelerated cell-based (ENU) mutagenesis screen, outgrowth of Ba/F3 FIG-ROS clones
FIG-ROS [5] = target: T1, FIG-ROS; assay: Immunoblot of Ba/F3 FIG-ROS lysates; assay type: cell-based; design: expressed in transfected cells; host or cells: Ba/F3 (A14), retroviral pMSCV-IRES-GFP; the other entry of the earlier key: GOPC (Q9HD26, Golgi-associated PDZ and coiled-coil motif-containing protein); conditions: Ba/F3 FIG-ROS cells, increasing amounts, immunoblot FIG. 1C
Procedure: as §3, §4

[6] = system: FIG-ROS cholangiocarcinoma tumor cells; assay: Anchorage-independent colony formation in soft agar, FIG-ROS cholangiocarcinoma cells; assay type: cell-based, murine; conditions: dose dependent
Text: […]. The values indicate the mean and the error bars indicate the standard error of the mean of 3 independent wells.
as §6

Ba/F3 Bcr-Abl cells = Ba/F3 Bcr-Abl cells (Homo sapiens, UniProt P00519); assay: Cell viability (MTS) assay, Ba/F3 Bcr-Abl; assay type: cell-based; conditions: read-out: IC50 (insensitive/resistant up to stated concentration)
Ba/F3 ALK F1174L cells = Ba/F3 ALK F1174L cells (Homo sapiens, UniProt Q9UM73, F1174L, cells depend on it); assay: Cell viability (MTS) assay, Ba/F3 ALK F1174L; assay type: cell-based; conditions: 72 hours, read-out: IC50 (the source's name)
Ba/F3 JAK3 A572V cells = Ba/F3 JAK3 A572V cells (Homo sapiens, UniProt P52333, A572V, cells depend on it); assay: Cell viability (MTS) assay, Ba/F3 JAK3 A572V; assay type: cell-based; conditions: read-out: IC50 (insensitive/resistant up to stated concentration)
Ba/F3 SLC-ROS cells = target: T2, Ba/F3 SLC-ROS cells (Homo sapiens, UniProt P08922); assay: Cell viability (MTS) assay, Ba/F3 SLC-ROS; assay type: cell-based; conditions: 72 hours, read-out: IC50 (the source's name)
T2 construct: SLC-ROS-S (SLC-ROS) was cloned from cDNA made from HCC78 cells; fused on or other part: GFP is co-expressed from an IRES in pMIG and is not fused; O95436 (Sodium-dependent phosphate transport protein 2B)
Procedure: as §1, §5

Ba/F3 FIG-ROS cells = target: T3, Ba/F3 FIG-ROS cells (Homo sapiens, UniProt P08922); assay: Cell viability (MTS) assay, Ba/F3 FIG-ROS; assay type: cell-based; conditions: read-out: IC50 (50% growth inhibitory concentration); Ba/F3 FIG-ROS cells, 72 hours, MTS
T3 construct: fused on or other part: GFP is co-expressed from an IRES in pMIG and is not fused; Q9HD26 (Golgi-associated PDZ and coiled-coil motif-containing protein)
Text: as §1, with “Ba/F3” for “The parental Ba/F3 cell line was cultured in RPMI 1640 medium with 10% FBS, L-glutamine, penicillin/streptomycin and 15% WEHI-conditioned media. Ba/F3”, “HCC78 cells were cultured in RPMI 1640 medium with 10% FBS, L-glutamine, and penicillin/streptomycin.” left out
The FIG-ROS-S (FIG-ROS) fusion protein has been reported in non-small cell lung cancers (NSCLC), glioblastomas, and cholangiocarcinomas.

T3 sequence (P08922 whole entry, change not shown, the tested form may be a part): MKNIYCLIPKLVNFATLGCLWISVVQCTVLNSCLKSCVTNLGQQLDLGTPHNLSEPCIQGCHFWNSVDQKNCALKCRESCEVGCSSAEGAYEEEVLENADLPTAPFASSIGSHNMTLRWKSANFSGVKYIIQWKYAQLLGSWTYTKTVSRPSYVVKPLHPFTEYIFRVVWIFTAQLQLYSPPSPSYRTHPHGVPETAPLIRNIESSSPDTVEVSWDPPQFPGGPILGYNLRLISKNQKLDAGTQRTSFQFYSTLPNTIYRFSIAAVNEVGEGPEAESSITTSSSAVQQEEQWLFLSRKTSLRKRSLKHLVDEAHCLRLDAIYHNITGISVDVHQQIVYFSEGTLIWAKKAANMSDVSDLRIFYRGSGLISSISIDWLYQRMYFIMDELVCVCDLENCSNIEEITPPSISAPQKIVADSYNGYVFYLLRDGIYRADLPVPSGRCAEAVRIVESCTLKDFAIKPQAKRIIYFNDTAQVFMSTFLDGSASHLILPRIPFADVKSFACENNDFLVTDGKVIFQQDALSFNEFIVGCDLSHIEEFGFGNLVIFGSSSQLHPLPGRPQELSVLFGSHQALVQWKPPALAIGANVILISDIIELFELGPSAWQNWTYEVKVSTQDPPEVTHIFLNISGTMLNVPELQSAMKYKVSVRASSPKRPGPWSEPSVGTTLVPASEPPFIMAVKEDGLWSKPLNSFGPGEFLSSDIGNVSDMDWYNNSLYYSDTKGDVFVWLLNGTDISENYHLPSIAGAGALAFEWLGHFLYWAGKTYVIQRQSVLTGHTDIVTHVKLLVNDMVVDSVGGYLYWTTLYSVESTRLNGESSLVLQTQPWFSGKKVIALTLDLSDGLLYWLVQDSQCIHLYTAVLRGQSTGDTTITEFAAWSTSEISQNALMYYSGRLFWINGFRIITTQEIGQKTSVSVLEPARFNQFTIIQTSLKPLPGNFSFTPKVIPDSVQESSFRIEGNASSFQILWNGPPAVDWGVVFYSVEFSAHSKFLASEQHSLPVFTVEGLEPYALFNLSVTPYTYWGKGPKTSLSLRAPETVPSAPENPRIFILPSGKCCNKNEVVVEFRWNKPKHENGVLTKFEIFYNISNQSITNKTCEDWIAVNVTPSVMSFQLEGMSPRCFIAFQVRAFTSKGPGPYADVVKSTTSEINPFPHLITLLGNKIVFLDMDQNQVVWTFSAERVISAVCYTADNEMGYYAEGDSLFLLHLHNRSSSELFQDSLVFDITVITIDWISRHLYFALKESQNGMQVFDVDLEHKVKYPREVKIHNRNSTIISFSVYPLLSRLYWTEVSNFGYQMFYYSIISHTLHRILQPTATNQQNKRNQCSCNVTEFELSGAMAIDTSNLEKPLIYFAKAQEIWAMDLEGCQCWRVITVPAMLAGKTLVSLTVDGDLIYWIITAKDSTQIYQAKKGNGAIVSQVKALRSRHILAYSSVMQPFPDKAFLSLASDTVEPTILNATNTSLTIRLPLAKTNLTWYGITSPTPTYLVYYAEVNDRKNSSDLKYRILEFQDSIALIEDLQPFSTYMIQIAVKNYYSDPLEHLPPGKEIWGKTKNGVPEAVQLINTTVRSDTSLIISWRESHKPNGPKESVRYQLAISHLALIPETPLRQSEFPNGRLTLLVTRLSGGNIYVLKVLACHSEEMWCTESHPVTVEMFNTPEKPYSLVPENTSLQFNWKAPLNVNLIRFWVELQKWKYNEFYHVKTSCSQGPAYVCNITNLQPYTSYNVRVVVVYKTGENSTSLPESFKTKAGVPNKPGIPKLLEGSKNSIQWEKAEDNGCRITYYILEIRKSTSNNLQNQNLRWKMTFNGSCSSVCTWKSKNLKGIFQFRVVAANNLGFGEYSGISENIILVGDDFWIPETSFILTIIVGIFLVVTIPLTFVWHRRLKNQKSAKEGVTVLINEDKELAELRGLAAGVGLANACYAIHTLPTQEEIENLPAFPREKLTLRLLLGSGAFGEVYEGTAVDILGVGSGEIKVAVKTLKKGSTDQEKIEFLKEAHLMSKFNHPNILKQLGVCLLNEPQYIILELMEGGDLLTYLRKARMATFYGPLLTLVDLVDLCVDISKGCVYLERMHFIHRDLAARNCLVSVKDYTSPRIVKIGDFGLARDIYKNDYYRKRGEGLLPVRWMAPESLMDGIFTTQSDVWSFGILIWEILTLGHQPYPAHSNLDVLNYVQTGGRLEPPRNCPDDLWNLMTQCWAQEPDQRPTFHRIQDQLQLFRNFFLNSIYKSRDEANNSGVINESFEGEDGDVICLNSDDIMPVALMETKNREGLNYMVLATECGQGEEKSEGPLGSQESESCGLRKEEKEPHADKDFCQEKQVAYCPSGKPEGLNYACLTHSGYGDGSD
T1 sequence (P08922 with tags, fused parts or gaps): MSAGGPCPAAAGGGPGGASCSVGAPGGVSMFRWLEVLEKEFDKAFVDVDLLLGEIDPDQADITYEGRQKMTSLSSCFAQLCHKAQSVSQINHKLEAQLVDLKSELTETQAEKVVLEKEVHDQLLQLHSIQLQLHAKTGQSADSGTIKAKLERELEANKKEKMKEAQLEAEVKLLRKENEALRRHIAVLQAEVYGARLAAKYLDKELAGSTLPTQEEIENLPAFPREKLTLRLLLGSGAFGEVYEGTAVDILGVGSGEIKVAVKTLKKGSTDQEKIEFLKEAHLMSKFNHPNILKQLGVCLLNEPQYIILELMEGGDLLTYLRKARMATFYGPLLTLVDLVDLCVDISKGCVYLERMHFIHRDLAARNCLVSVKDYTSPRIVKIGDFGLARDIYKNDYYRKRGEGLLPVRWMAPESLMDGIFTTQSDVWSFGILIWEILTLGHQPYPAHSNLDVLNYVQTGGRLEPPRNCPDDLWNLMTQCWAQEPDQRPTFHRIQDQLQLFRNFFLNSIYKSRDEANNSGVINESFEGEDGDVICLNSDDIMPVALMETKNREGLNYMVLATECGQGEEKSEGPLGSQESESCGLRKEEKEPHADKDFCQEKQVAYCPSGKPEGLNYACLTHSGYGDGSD
T2 sequence (P08922 whole entry, change not shown, the tested form may be a part): as the sequence (P08922 whole entry, change not shown, the tested form may be a part) above
Sequence of SLC-ROS (P08922 with tags, fused parts or gaps): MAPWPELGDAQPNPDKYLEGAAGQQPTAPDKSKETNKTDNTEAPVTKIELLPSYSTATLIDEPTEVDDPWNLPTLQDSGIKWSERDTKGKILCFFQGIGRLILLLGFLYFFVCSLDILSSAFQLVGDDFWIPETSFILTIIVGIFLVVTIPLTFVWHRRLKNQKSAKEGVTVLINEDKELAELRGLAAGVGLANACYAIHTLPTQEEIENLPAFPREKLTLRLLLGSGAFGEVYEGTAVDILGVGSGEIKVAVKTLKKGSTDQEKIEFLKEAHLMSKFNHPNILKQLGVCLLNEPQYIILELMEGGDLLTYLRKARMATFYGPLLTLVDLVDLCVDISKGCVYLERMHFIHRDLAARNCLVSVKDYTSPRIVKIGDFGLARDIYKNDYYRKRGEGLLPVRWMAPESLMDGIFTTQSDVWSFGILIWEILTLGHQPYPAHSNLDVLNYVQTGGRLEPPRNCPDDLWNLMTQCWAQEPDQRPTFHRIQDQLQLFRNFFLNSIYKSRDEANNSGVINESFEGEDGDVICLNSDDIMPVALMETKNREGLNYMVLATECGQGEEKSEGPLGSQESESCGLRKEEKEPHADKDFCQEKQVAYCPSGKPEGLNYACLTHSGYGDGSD
Sequence of Ba/F3 JAK3 A572V cells (P52333 whole entry A572V): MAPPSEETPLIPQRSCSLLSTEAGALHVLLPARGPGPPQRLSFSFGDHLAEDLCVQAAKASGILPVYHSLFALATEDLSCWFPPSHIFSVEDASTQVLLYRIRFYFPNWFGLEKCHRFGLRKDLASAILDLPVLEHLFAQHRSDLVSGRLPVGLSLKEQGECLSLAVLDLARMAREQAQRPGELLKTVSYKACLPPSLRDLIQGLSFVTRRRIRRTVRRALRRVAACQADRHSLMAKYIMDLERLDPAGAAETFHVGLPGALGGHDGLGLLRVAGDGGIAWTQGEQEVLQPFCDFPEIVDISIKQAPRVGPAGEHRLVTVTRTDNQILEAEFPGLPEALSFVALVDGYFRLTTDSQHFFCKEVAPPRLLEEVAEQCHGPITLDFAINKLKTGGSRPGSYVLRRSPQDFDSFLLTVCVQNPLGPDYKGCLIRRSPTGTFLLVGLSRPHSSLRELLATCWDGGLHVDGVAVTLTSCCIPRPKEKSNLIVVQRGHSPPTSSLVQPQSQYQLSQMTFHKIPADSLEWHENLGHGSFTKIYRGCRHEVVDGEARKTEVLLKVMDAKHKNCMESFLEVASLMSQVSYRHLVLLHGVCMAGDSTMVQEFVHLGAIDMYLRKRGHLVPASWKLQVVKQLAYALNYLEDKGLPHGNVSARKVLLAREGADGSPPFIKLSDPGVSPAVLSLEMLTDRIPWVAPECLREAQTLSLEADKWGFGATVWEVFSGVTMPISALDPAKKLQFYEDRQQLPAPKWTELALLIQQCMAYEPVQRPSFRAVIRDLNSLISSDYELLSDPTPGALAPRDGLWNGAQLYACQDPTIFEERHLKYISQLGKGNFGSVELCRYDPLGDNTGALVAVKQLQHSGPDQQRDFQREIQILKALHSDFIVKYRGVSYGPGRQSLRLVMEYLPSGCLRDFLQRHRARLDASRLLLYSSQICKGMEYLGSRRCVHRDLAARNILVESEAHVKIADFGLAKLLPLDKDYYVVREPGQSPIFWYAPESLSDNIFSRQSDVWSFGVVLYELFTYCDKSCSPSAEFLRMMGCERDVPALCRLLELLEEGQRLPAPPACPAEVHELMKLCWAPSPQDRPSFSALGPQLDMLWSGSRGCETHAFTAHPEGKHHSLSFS

SMILES: Cn1cc(-c2ccc3nnc(C(F)(F)c4ccc5ncccc5c4)n3n2)cn1 [JNJ38877605]
HCC78 cell growth sensitivity to MET inhibitors (HCC78 cells; FIG. 6C): resistant

autophosphorylation of SLC-ROS and ROS1-driven signaling (phospho-Shp2, phospho-ERK1/2) (SLC-ROS): dose dependent decrease
IC50 (HCC78 cells; Homo sapiens, 72 hour exposure, read-out: IC50 HCC78 cell growth): 2200 nM
auto-phosphorylation of FIG-ROS and phosphorylation of Shpt and ERK1/2 (FIG-ROS [1]): more moderate effect
autophosphorylation of FIG-ROS and ROS1-driven signaling (phospho-Shp2, phospho-ERK1/2) (FIG-ROS [5]): dose dependent decrease
SMILES: C[C@@H](Oc1cc(-c2cnn(C3CCNCC3)c2)cnc1N)c1c(Cl)ccc(F)c1Cl [crizotinib]
FIG-ROS tumor volume (FIG-ROS tumors): moderate but statistically insignificant effect
sensitivity of cell growth (PC9 cells): relatively insensitive
sensitivity of cell growth (HCC4011 cells): relatively insensitive
IC50 (Ba/F3 parental cells; Mus musculus, BaF3, read-out: IC50 (insensitive/resistant up to stated concentration)): > 2000 nM
IC50 [2]: 690 nM
IC50 [3]: > 2000 nM
frequency of outgrowth of clones ([4]; 500 nM crizotinib): 40%
outgrowth of clones ([4]; 2000 and 2500 nM crizotinib): no outgrowth of clones
anchorage-independent colonies in soft agar [6]: inhibited

SMILES: CNC(=O)c1c(F)cccc1Nc1nc(Nc2cc3c(cc2OC)CCN3C(=O)CN(C)C)nc2[nH]ccc12 [GSK1838705A]
GI50 (Ba/F3 Bcr-Abl cells): > 10000 nM
GI50 (Ba/F3 ALK F1174L cells): 10 nM
GI50 (Ba/F3 JAK3 A572V cells): > 10000 nM
GI50 (Ba/F3 SLC-ROS cells): 1000 nM
IC50 (Ba/F3 parental cells; Ba/F3 parental cells, read-out: IC50 (insensitive/resistant up to stated concentration)): > 10000 nM
GI50 (Ba/F3 FIG-ROS cells): 250 nM

autophosphorylation of SLC-ROS and ROS1-driven signaling (phospho-Shp2, phospho-ERK1/2) (SLC-ROS): dose dependent decrease
autophosphorylation of FIG-ROS and ROS1-driven signaling (phospho-Shp2, phospho-ERK1/2) (FIG-ROS [5]): dose dependent decrease
SMILES: COc1cc(N2CCC(N3CCN(C)CC3)CC2)ccc1Nc1ncc(Cl)c(Nc2ccccc2S(=O)(=O)C(C)C)n1 [TAE684]
GI50 (Ba/F3 SLC-ROS cells): 28 nM
IC50 (Ba/F3 parental cells; Mus musculus, BaF3, Ba/F3 parental cells, read-out: IC50 (insensitive/resistant up to stated concentration)): > 2000 nM
GI50 (Ba/F3 FIG-ROS cells): 2 nM and 1.8 nM
